Species on record: Mus musculus
Assay: Binding affinity to mouse Monoclonal antibody DIG 64.2B.5 by ELISA relative to digoxin

| Structure (SMILES) | Ratio IC50 |
| --- | --- |
| C[C@@H]1CC[C@@]2(OC1)O[C@H]1[C@@H](O)[C@H]3[C@@H]4CC[C@H]5C[C@@H](O[C@@H]6O[C@H](CO)[C@H](O[C@@H]7O[C@H](CO)C(O)[C@H](O[C@@H]8OC[C@@H](O)[C@H](O)[C@H]8O)[C@H]7O[C@@H]7O[C@H](CO)[C@H](O)[C@H](O[C@@H]8O[C@H](CO)[C@@H](O)[C@H](O)[C@H]8O)[C@H]7O)[C@H](O)[C@H]6O)[C@H](O)C[C@]5(C)[C@H]4CC[C@]3(C)[C@H]1[C@@H]2C (stereo partly specified) | > 6e+06 |
| C[C@H]1O[C@@H](O[C@H]2CC[C@@]3(C)[C@H](CC[C@@H]4[C@@H]3C[C@@H](O)[C@]3(C)[C@@H](C5=CC(=O)OC5)CC[C@]43O)C2)C[C@H](O)[C@@H]1O[C@H]1C[C@H](O)[C@H](O[C@H]2C[C@H](O)[C@H](O[C@@H]3O[C@H](CO)[C@@H](O)[C@H](O)[C@H]3O)[C@@H](C)O2)[C@@H](C)O1 | 1.8 |
| CO[C@@H]1[C@@H](O)[C@H](O[C@H]2CC[C@@]3(C)[C@H](CC[C@@H]4[C@@H]3CC[C@]3(C)[C@@H](C5=CC(=O)OC5)[C@@H](O)C[C@]43O)C2)O[C@H](C)[C@@H]1O[C@@H]1O[C@H](CO)[C@@H](O)[C@H](O)[C@H]1O | 16000 |
| C[C@]12CC[C@H](O)C[C@H]1CC[C@@H]1[C@@H]2CC[C@]2(C)[C@@H](C3=CC(=O)OC3)CC[C@]12O | 23000 |
| CC(=O)O[C@H]1C[C@H](O[C@H]2[C@@H](O)C[C@H](O[C@H]3[C@@H](O)C[C@H](O[C@H]4CC[C@@]5(C)[C@H](CC[C@@H]6[C@@H]5C[C@@H](O)[C@]5(C)[C@@H](C7=CC(=O)OC7)CC[C@]65O)C4)O[C@@H]3C)O[C@@H]2C)O[C@H](C)[C@H]1O[C@@H]1O[C@H](CO)[C@@H](O)[C@H](O)[C@H]1O | 1.2 |
| C[C@]12CC[C@H](O)C[C@H]1CC[C@@H]1[C@@H]2C[C@@H](O)[C@]2(C)[C@@H](C3=CC(=O)OC3)CC[C@]12O | 1.2 |
| C[C@@H]1O[C@@H](O[C@H]2C[C@@H](O)[C@]3(CO)[C@H]4[C@H](O)C[C@]5(C)[C@@H](C6=CC(=O)OC6)CC[C@]5(O)[C@@H]4CC[C@]3(O)C2)[C@H](O)[C@H](O)[C@H]1O | > 6e+06 |
| C[C@H]1OC(O)C[C@H](O)[C@@H]1O (stereo partly specified) | > 1.2e+08 |
| C[C@]12CC[C@H](O)C[C@H]1CC[C@@H]1[C@@H]2CC[C@]2(C)[C@@H](C3=CC(=O)OC3)[C@@H](O)C[C@]12O | > 540000 |
| C[C@H]1O[C@@H](O[C@H]2[C@@H](O)C[C@H](O[C@H]3[C@@H](O)C[C@H](O[C@H]4CC[C@@]5(C)[C@H](CC[C@@H]6[C@@H]5CC[C@]5(C)[C@@H](C7=CC(=O)OC7)CC[C@]65O)C4)O[C@@H]3C)O[C@@H]2C)C[C@H](O)[C@@H]1O | 2800 |
| C[C@H]1O[C@@H](O[C@H]2[C@@H](O)C[C@H](O[C@H]3[C@@H](O)C[C@H](O[C@H]4CC[C@@]5(C)[C@H](CC[C@@H]6[C@@H]5CC[C@]5(C)[C@@H](C7=CC(=O)OC7)[C@@H](O)C[C@]65O)C4)O[C@@H]3C)O[C@@H]2C)C[C@H](O)[C@@H]1O | 46 |

From ChEMBL document CHEMBL1150189, “Determination of cardenolides in hairy root cultures of Digitalis lanata by enzyme-linked immunosorbent assay” (J Nat Prod, 1990)
